Key:
Experiment in all cases: Subcutaneous xenograft mice model
Type in all cases: in vivo, nude FOXN1nu/nu mice
[1] = tested on: Non-small cell lung cancer (cell line A549); conditions: 45 mg/Kg I.P. every Monday, Wednesday and Friday for 5 weeks
Experimental: (§1) Human cancer cell lines were inoculated subcutaneously in nude FOXN1^nu/nu mice (Envigo spa) in both flanks.
(§2) The number of cells inoculated varied between different cell lines: • A549 and A549 Red-FLuc: 5 x 10^6 in medium:matrigel (1:1 v/v) • MDAMB231: 2.8 x 10^6 in medium:matrigel (1:2 v/v)
(§3) When tumors reach the appropriate volume for each cell line, the compounds were administered I.P. every 48 hours, 3 times a week every Monday, Wednesday and Friday for 5 weeks, at a dose selected from the PK study, as follows: • vehicle: 10% DMSO, 5% TWEEN 80 and WFI (85%) • treatment group dose: 45 mg/kg • control group: vehicle only • dose concentration: 12 mg/ml in 10% DMSO, 5% TWEEN 80 and WFI (85%) • volume: 5 ml/kg
(§4) Tumor volume was evaluated twice a week with caliper and calculated with the standard formula (Length ^∗ Height ^∗ Height)/2. Mice were weighed twice a week. Tumor growth is calculated with respect to the first day of treatment (day 0) as ratio between the volume at each day of measurement and day 0.

[2] = tested on: Non-small cell lung cancer engineered with a luciferase reporter (cell line A549 Red-FLuc); conditions: 45 mg/Kg I.P. every Monday, Wednesday and Friday for 5 weeks
Experimental: as §1, §2, §3, §4

[3] = tested on: Triple negative breast cancer (cell line MDA-MB-231); conditions: MDA-MB-231 xenograft, 45 mg/Kg I.P. every Monday, Wednesday and Friday for 5 weeks
Experimental: as §1, §2, §3, §4

Measured: tumor growth

CCCCc1cn(-c2ccc(-c3nnc(-c4ccccc4C(F)(F)F)o3)cc2)nn1 [Compound 5]
counteract tumor growth: all assays above
